Experimental data published in article PMC4787807 (Nucleic Acids Research, 2015).

Target: EAV nsp9 (Equine arteritis virus Bucyrus, UniProt P19811)
Assay: covalent labelling, tryptic digest and nano-LC-MS/MS

EAV nsp9, sequence (P19811 1678-2370): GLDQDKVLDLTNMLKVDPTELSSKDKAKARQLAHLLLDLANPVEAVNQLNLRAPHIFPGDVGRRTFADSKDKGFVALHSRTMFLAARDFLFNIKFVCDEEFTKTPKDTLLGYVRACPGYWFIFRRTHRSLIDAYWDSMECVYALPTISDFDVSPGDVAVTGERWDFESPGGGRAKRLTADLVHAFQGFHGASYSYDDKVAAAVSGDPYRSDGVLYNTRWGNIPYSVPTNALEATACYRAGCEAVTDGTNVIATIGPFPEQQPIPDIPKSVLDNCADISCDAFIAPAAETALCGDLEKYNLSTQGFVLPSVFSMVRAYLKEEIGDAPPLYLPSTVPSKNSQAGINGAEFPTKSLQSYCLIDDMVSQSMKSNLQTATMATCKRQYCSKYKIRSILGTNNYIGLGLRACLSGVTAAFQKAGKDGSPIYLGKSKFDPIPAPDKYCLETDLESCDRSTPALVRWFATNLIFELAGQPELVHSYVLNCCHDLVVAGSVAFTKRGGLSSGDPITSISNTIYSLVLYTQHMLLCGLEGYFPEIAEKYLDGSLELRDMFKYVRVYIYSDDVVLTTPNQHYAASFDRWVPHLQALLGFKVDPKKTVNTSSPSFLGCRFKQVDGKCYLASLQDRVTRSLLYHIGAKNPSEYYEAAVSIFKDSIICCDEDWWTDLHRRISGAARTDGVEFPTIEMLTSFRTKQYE

Compound: Nc1nc2c(ncn2[C@@H]2O[C@H](COC(=O)c3ccc(S(=O)(=O)F)cc3)[C@@H](O)[C@H]2O)c(=O)[nH]1 [FSBG, 5′-(4-fluorosulfonylbenzoyl)guanosine]
- covalent labelling, tryptic digest and nano-LC-MS/MS: seven modified peptides representing five distinct nsp9 regions could be assigned
